The source of these data is patent US6818407B2, “Anti-endotoxic antimicrobial cationic peptides and methods of use therfor” (priority 1998, dated 2004).

Marks after values point to notes of the source that are not given here.

Experiment [1] deals with RAW 264.7. Description: Inhibition of LPS-induced TNF production by RAW 264.7 macrophage cell line. The experiment is classed as cell-based, murine. As to conditions: E. coli LPS 100 ng/ml, peptide 20 μg/ml, 6 hr; FIG. 2. The method, then:
(§1) LPS (endotoxin) binding was examined by the dansyl polymyxin binding assay. All peptides bound to LPS (FIG. 1). The anti-endotoxic activity of the peptides was tested in the murine cell line RAW 264.7 which was obtained from the ATCC (ATCC #TIB-71), (Rockville, Md.). TNF induction experiments with LPS were performed as described by Kelly et al (Infect. Immun., 59:4491-6, 1991). Briefly, Dulbecco's modified Eagle medium was aspirated from RAW 264.7 cells grown overnight in 24-well tissue culture plates after seeding with 10^6 cells per ml per well and replaced with fresh medium. LPS at a final concentration of 100 ng/ml, was incubated with the cells for 6 hr. at 37° C. in 5% CO2 prior to assaying for cytokine production. At the same time as LPS addition, cationic peptides were added at a final concentration of 20 μg/ml. All assays were performed three times with similar results.
(§2) TNF was measured in cell culture supernatants and mouse serum on the basis of cytoxicity for L929 fibroblast cells. […] TNF activity was expressed in units as the reciprocal of the dilution of TNF that caused 50% cytotoxicity of L929 cells, as computed using the ELISA+program (Meddata Inc, New York, N.Y.). For the current study, one unit of TNF corresponded to 62.5 pg/ml of recombinant murine TNF (Genzyme Corp.) IL-6 production was measured by ELISA with specific antibody.

Experiment [2] can be described thus: Lethal endotoxemia in galactosamine-sensitized mice. The experiment is classed as in vivo, CD-1 mice. As to conditions: peptide 200 μg intraperitoneal within 10 min of 10 μg LPS; 24 hours post injection; 5 mice per group; no peptide 100. The method, then:
To confirm this in vivo, endotoxic shock was induced by intraperitoneal injection of 10 μg of E.coli 0111:B4 LPS in phosphate-buffered saline (PBS; pH 7.2) into galactosamine-sensitized 8- to 10- week old female CD-1 mice (5 per group). In experiments involving peptides, 200 μg in 100 μl of sterile water was injected at separate intraperitoneal sites within 10 min of LPS injection. Survival was monitored at 24 hours post injection.

The next experiment has as its system S. epidermis. Description: MIC, broth microdilution assay in polypropylene microtiter trays. The class given is cell-based. The following applies: average of three separate experiments. A digest of the protocol:
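MIC values record the lowest peptide concentration at which turbidity (OD) remained unchanged throughout the assigned period.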

The test system of experiment [3] is RAW 264.7. Briefly: Suppression of LPS-induced IL-6 production by RAW 264.7 macrophage cell line. The experiment is classed as cell-based, murine. The following applies: LPS 100 ng/ml, peptide 20 μg/ml, 6 hr, ELISA, FIG. 3. As to the method:
as §1, §2

In experiment [4] the test system is Pseudomonas aeruginosa PAO. Briefly: Chronic Pseudomonas aeruginosa lung infection in rats, aerosol treatment. The following applies: lungs, quantitative culture; aerosol 10 ml of 5 mg/ml once daily for three days; untreated control 1.2 × 10^6. The class given is in vivo. The method, then: Fifteen animals were utilized in these experiments (5 animals in each of three groups). All animals were inoculated intratracheal with 10^4 Pseudomonas aeruginosa PAO in agar beads. Three days following inoculation, rats were exposed to aerosol preparations from and Aero-Tech II nebulizer (CIS-US, Bedford, Mass.). The nebulizer was operated at 45 psi, with a flow rate of 10 L/min and contained 10 ml of the preparation to be aerosolized. The 10 ml volume was dispensed in 25-30 minutes. Animals were treated once daily for three days; control animals received daily exposure to 10 mls of 10 mM sodium citrate (pH 7.0); one treatment group received daily exposure to 10 mls of 10 mM sodium citrate (pH 7.0) containing 5 mg/ml of CM3; one treatment group received daily exposure to 10 mls of 10 mM sodium citrate (pH 7.0) containing 5 mg/ml of Cpα2. Animals were sacrificed on day 3, at one hour following the last exposure. The lungs of the treatment and control animals were removed for quantitative culture.

The subject of experiment [5] is P. aeruginosa gyrase mutant (Nal A, H374). The class given is cell-based. The method, then:
The biological activity of the peptides can be determined by standard methods known to those of skill in the art, such as Aminimal inhibitory concentration (MIC)≅ assay described in the present examples, whereby the lowest concentration at which no change in OD is observed for a given period of time is recorded as MIC. Alternatively, Afractional inhibitory concentration (FIC)≅ is also useful for determination of synergy between the peptides of the invention, or the peptides in combination with known antibiotics. FICs are performed by checkerboard titrations of peptides in one dimension of a microtiter plate, and of antibiotics in the other dimension, for example. The FIC is calculated by looking at the impact of one antibiotic on the MIC of the other and vice versa. […] Preferably, an FIC of less than 0.5 is obtained for synergism. As used herein, FIC can be determined as follows: [formula]
To test whether the peptides of the invention synergize with various antibiotics, the following method was employed. Fractional Inhibitory Concentration (FIC) was used to determine synergy of peptides combined with antibiotics (e.g., carbenicillin/ciprofloxacin) against Pseudomonas aeruginosa. The following methodology was followed:
(1) Determination of MIC of cationic peptides (MIC A):
100 μl Mueller Hinton broth (MHB) was added per well
12.5 μl of 10× test concentration peptide was added per well to get final peptide concentration of e.g., 128, 64, 32, . . . 0.025 μg/ml from row 1 to 11;
10 μl of 10^−4 dilution of overnight bacterial culture was added per well.
(2) Determination of MIC of Carbenicillin/Ciprofloxacin (MIC B):
100 μl MHB was added per well;
100 μl of 2× test concentration of antibiotic was added in the first well of the row, and doubling dilutions performed across the plate from column 1 to 11;
(3) Determination of MIC of antibiotics (B) when combined with peptides at concentration A:
100 μl Carbenicillin (512 μg/ml) or Ciprofloxacin (8 μg/ml) was added in each well of column 1; doubling dilutions were performed across the plate;
100 μl of the peptide was added in all wells of row 1, mixed, and 100 μl withdrawn and added to row 2, etc., creating a checkerboard titration.
10 μl of 10^−4 dilution of overnight culture was added per well;
plates were incubated at 37EC for 18-24 hours. Combination MIC values A and B were taken as the lowest concentration of drug that reduced bacterial growth by more than 50% in any given column.
(4) FIC index=FICA+FICB=(A)/MIC A+(B)/MIC B. An FIC index of approximately 0.5 or less indicates synergy; 1.0 reflects additivity; and >1.0 indicates antagonism.

Experiment [6] concerns P. aeruginosa efflux mutant (Nal B, H744). Briefly: microbe, parasite or virus in culture. The class given is cell-based.

For the compound `CC[C@H](C)[C@H](NC(=O)CNC(=O)[C@@H](NC(=O)[C@H](CCCCN)NC(=O)[C@H](CCCCN)NC(=O)[C@H](Cc1ccccc1)NC(=O)[C@H](CC(C)C)NC(=O)[C@H](CCCCN)NC(=O)[C@H](Cc1c[nH]c2ccccc12)NC(=O)[C@@H](N)CCCCN)[C@@H](C)CC)C(=O)NCC(=O)N[C@@H](C)C(=O)N[C@H](C(=O)N[C@@H](CC(C)C)C(=O)N[C@@H](CCCCN)C(=O)N[C@H](C(=O)N[C@@H](CC(C)C)C(=O)N[C@@H](CCCCN)C(=O)N[C@H](C(=O)N[C@@H](CC(C)C)C(=O)N[C@H](C(=O)N[C@H](C(=O)NCC(=O)N[C@@H](CC(C)C)C(=O)N1CCC[C@H]1C(=O)N[C@@H](C)C(=O)N[C@@H](CC(C)C)C(=O)N[C@@H](CCCCN)C(=O)N[C@@H](CC(C)C)C(=O)N[C@H](C(=O)N[C@@H](CC(C)C)C(=O)N[C@@H](CCCCN)C(=O)O)[C@@H](C)O)[C@@H](C)O)[C@@H](C)O)C(C)C)C(C)C)C(C)C` [CM4], the “Inhibition of TNF production (neutralization of endotoxin)” value with RAW 264.7 [1] is “clearly better than others”. For the same compound, the “Mortality (%)” value in experiment [2] is recorded as 80%. The “MIC S. epidermis” value in the experiment with S. epidermis amounted to 4 µg/mL.
As for `CC[C@H](C)[C@H](NC(=O)CNC(=O)[C@@H](NC(=O)[C@H](CCCCN)NC(=O)[C@H](CCCCN)NC(=O)[C@H](Cc1ccccc1)NC(=O)[C@H](CC(C)C)NC(=O)[C@H](CCCCN)NC(=O)[C@H](Cc1c[nH]c2ccccc12)NC(=O)[C@H](CC(C)C)NC(=O)[C@@H](N)CCCCN)[C@@H](C)CC)C(=O)NCC(=O)N[C@@H](C)C(=O)N[C@H](C(=O)N[C@@H](CC(C)C)C(=O)N[C@@H](CCCCN)C(=O)N[C@H](C(=O)N[C@@H](CC(C)C)C(=O)N[C@@H](CCCCN)C(=O)N[C@H](C(=O)N[C@@H](CC(C)C)C(=O)N[C@H](C(=O)N[C@H](C(=O)NCC(=O)N[C@@H](CC(C)C)C(=O)N1CCC[C@H]1C(=O)N[C@@H](C)C(=O)N[C@@H](CC(C)C)C(=O)N[C@@H](CCCCN)C(=O)N[C@@H](CC(C)C)C(=O)N[C@H](C(=O)N[C@@H](CC(C)C)C(=O)N[C@@H](CCCCN)C(=O)O)[C@@H](C)O)[C@@H](C)O)[C@@H](C)O)C(C)C)C(C)C)C(C)C` [CM7], in experiment [2], the “Mortality (%)” value is 100%. Also, the “Suppression of IL-6 production” value with RAW 264.7 [3] is “clearly superior in their ability to suppress IL-6 production”. For the same compound, in the experiment on S. epidermis, the “MIC S. epidermis” value was 4 µg/mL.
On to `CC[C@H](C)[C@H](NC(=O)CNC(=O)[C@@H](NC(=O)[C@H](CCCCN)NC(=O)[C@H](CCCCN)NC(=O)[C@@H](NC(=O)[C@H](Cc1ccccc1)NC(=O)[C@H](CCCCN)NC(=O)[C@H](CCCCN)NC(=O)[C@H](Cc1c[nH]c2ccccc12)NC(=O)[C@@H](N)CCCCN)[C@@H](C)CC)[C@@H](C)CC)C(=O)NCC(=O)N[C@@H](C)C(=O)N[C@H](C(=O)N[C@@H](CC(C)C)C(=O)N[C@@H](CCCCN)C(=O)N[C@H](C(=O)N[C@@H](CC(C)C)C(=O)N[C@H](C(=O)N[C@H](C(=O)NCC(=O)N[C@@H](CC(C)C)C(=O)N1CCC[C@H]1C(=O)N[C@@H](C)C(=O)N[C@@H](CC(C)C)C(=O)N[C@@H](CCCCN)C(=O)N[C@@H](CC(C)C)C(=O)N[C@H](C(=O)N[C@@H](CCCCN)C(=O)N[C@@H](CCCCN)C(=O)O)[C@@H](C)O)[C@@H](C)O)[C@@H](C)O)C(C)C)C(C)C` [CPα2], for which the “Inhibition of TNF production (neutralization of endotoxin)” value in the experiment with RAW 264.7 [1] is “clearly better than others”. Moreover, the “Suppression of IL-6 production” value with RAW 264.7 [3] is “clearly superior in their ability to suppress IL-6 production”; in the experiment with RAW 264.7 [3] (listed as Cpα2), “superior in their ability to suppress IL-6 production”. For the same compound, the “Mean Colony Forming Units +/− S.D.” value in experiment [4] is on record as 6.8 × 10^4 +/− 3.6 × 10^4* CFU. The “(B) MIC of Nal when combined with peptide” value in experiment [5] (nalidixic acid with peptide at concentration (A), Nal A, unit from method) turned out to be 800 µg/mL; in experiment [6] (nalidixic acid with peptide at concentration (A), efflux mutant Nal B, H744, unit from method) it was 800 µg/mL. For the same compound, the FIC index in experiment [5] (peptide + nalidixic acid, Nal A) amounted to 0.50; in experiment [6] (peptide + nalidixic acid, efflux mutant Nal B, H744), 0.63. Further, the “MIC A MIC of Peptides” value in experiment [5] (peptide alone, P. aeruginosa gyrase mutant Nal A) was determined as 4 µg/mL; in experiment [6] (peptide alone, P. aeruginosa efflux mutant Nal B, H744 (Table 6)), 4 µg/mL. Also, the “(A) Peptide doses together with Nal” value in experiment [5] (peptide concentration in combination with nalidixic acid, Nal A) came to 1 µg/mL; in experiment [6] (peptide concentration in combination with nalidixic acid, efflux mutant Nal B, H744), 0.5 µg/mL.
